Source: article PMC10425210 (The Journal of Clinical Investigation, 2023)

Assay: Plasma pharmacokinetics after a single subcutaneous administration of LEN
Type: in vivo, rhesus macaques
Procedure: All animals were housed at Bioqual Inc. For the in vivo SHIV stock titration study, 8 untreated outbred Indian-origin male rhesus macaques aged 3–5 years were challenged intrarectally per round for a total of 5 challenge rounds using increasing virus doses ranging from 0.625 to 100 TCID50, with the 100 TCID50 round performed twice for increased resolution (Supplemental Table 2). Plasma viral load was measured to confirm the infection status. […] Injection sites were monitored daily by veterinary staff for 2 weeks and then weekly through the end of study. On week 7, 11 animals were challenged by the intrarectal route with 1 mL RPMI containing 100 TCID50 SHIV-SF162P3. Whole blood was collected and processed into plasma and PBMCs as necessary for the assessment of routine hematology and clinical chemistry, viral load analysis, serology, and the bioanalysis of drug levels. Animals were considered protected if they remained SHIV negative by a plasma PCR assay and seronegative by enzyme immunoassay through week 10 after challenge.
Rhesus plasma samples were stored frozen at –80°C and thawed, and a 50 μL aliquot of each was treated with 200 μL acetonitrile containing an internal standard. After precipitation of the protein component, a 100 μL aliquot of the supernatant was transferred to a clean 96-well plate and mixed with 200 μL water. A 10 μL aliquot of the above solution was then injected into a Q-Exactive high resolution mass spectrometer from Thermo Electron with electrospray ionization in positive mode.

SMILES: CC(C)(C#Cc1ccc(-c2ccc(Cl)c3c(NS(C)(=O)=O)nn(CC(F)(F)F)c23)c([C@H](Cc2cc(F)cc(F)c2)NC(=O)Cn2nc(C(F)(F)F)c3c2C(F)(F)[C@@H]2C[C@H]32)n1)S(C)(=O)=O [LEN, Lenacapavir]
- dose proportionality of exposure (5 to 20 mg/kg sc): dose-proportional increase
- dose proportionality of exposure (50 to 75 mg/kg sc): more than dose-proportional increase
- Plasma LEN (animal BM55, 20 mg/kg, week 0 post challenge): 38.60 nM
- Plasma LEN (animal BM55, 20 mg/kg, week 6 post challenge): 10.80 nM
- Plasma LEN (animal BM55, 20 mg/kg, week 7 post challenge): 7.10 nM
- Plasma LEN (animal BM55, 20 mg/kg, week 8 post challenge): 5.30 nM
- Plasma LEN (animal BM55, 20 mg/kg, week 9 post challenge): 3.80 nM
- Plasma LEN (animal BM55, 20 mg/kg, week 10 post challenge): 4.10 nM
- Plasma LEN (animal BN33, 20 mg/kg, week 0 post challenge): 18.60 nM
- Plasma LEN (animal BN33, 20 mg/kg, week 6 post challenge): 9.10 nM
- Plasma LEN (animal BN33, 20 mg/kg, week 7 post challenge): 5.71 nM
- Plasma LEN (animal BN33, 20 mg/kg, week 8 post challenge): 6.90 nM
- Plasma LEN (animal BN33, 20 mg/kg, week 9 post challenge): 4.70 nM
- Plasma LEN (animal BN33, 20 mg/kg, week 10 post challenge): 4.50 nM
- Plasma LEN (animal CO92, 50 mg/kg, week 0 post challenge): 50.08 nM
- Plasma LEN (animal CO92, 50 mg/kg, week 1 post challenge): 62.65 nM
- Plasma LEN (animal CO92, 50 mg/kg, week 2 post challenge): 47.76 nM
- Plasma LEN (animal CO92, 50 mg/kg, week 3 post challenge): 52.01 nM
- Plasma LEN (animal CO92, 50 mg/kg, week 4 post challenge): 67.23 nM
- Plasma LEN (animal CO92, 50 mg/kg, week 5 post challenge): 66.62 nM
- Plasma LEN (animal CO92, 50 mg/kg, week 6 post challenge): 66.12 nM
- Plasma LEN (animal CO92, 50 mg/kg, week 7 post challenge): 36.27 nM
- Plasma LEN (animal CO92, 50 mg/kg, week 8 post challenge): 42.04 nM
- Plasma LEN (animal CO92, 50 mg/kg, week 9 post challenge): 52.87 nM
- Plasma LEN (animal CO92, 50 mg/kg, week 10 post challenge): 56.39 nM
- Plasma LEN (animal CO92, 50 mg/kg, week 11 post challenge): 43.33 nM
- Plasma LEN (animal CO92, 50 mg/kg, week 12 post challenge): 27.05 nM
- Plasma LEN (animal CO92, 50 mg/kg, week 13 post challenge): 18.50 nM
- Plasma LEN (animal CO92, 50 mg/kg, week 14 post challenge): 13.10 nM
- Plasma LEN (animal CO92, 50 mg/kg, week 15 post challenge): 18.82 nM
- Plasma LEN (animal CO92, 50 mg/kg, week 16 post challenge): 13.67 nM
- Plasma LEN (animal CP67, 75 mg/kg, week 8 post challenge): 37.09 nM
- Plasma LEN (animal CP67, 75 mg/kg, week 9 post challenge): 36.45 nM
- Plasma LEN (animal CP67, 75 mg/kg, week 10 post challenge): 23.67 nM
- Plasma LEN (animal CP67, 75 mg/kg, week 11 post challenge): 20.33 nM
- Plasma LEN (animal V229, 20 mg/kg, week 0 post challenge): 37.30 nM
- Plasma LEN (animal V229, 20 mg/kg, week 6 post challenge): 15.10 nM
- Plasma LEN (animal V229, 20 mg/kg, week 7 post challenge): 8.33 nM
- Plasma LEN (animal V229, 20 mg/kg, week 8 post challenge): 6.00 nM
- Plasma LEN (animal V229, 20 mg/kg, week 9 post challenge): 3.70 nM
- Plasma LEN (animal V229, 20 mg/kg, week 10 post challenge): 4.60 nM
- Plasma LEN (animal V411, 50 mg/kg, week 0 post challenge): 143.42 nM
- Plasma LEN (animal V411, 50 mg/kg, week 1 post challenge): 64.99 nM
- Plasma LEN (animal V411, 50 mg/kg, week 2 post challenge): 55.43 nM
- Plasma LEN (animal V411, 50 mg/kg, week 3 post challenge): 47.46 nM
- Plasma LEN (animal V411, 50 mg/kg, week 4 post challenge): 28.61 nM
- Plasma LEN (animal V411, 50 mg/kg, week 5 post challenge): 19.46 nM
- Plasma LEN (animal V411, 50 mg/kg, week 6 post challenge): 17.89 nM
- Plasma LEN (animal V411, 50 mg/kg, week 7 post challenge): 11.22 nM
- Plasma LEN (animal V411, 50 mg/kg, week 8 post challenge): 7.46 nM
- Plasma LEN (animal V411, 50 mg/kg, week 9 post challenge): 7.40 nM
- Plasma LEN (animal V411, 50 mg/kg, week 10 post challenge): 5.89 nM
- Plasma LEN (animal V411, 50 mg/kg, week 11 post challenge): 3.67 nM
- Plasma LEN (animal V411, 50 mg/kg, week 12 post challenge): 2.40 nM
- Plasma LEN (animal V411, 50 mg/kg, week 13 post challenge): 3.03 nM
- Plasma LEN (animal V411, 50 mg/kg, week 14 post challenge): 2.52 nM
- Plasma LEN (animal V411, 50 mg/kg, week 15 post challenge): 2.21 nM
- Plasma LEN (animal V411, 50 mg/kg, week 16 post challenge): 1.79 nM
- Plasma LEN (animal V417, 75 mg/kg, week 8 post challenge): 23.00 nM
- Plasma LEN (animal V417, 75 mg/kg, week 9 post challenge): 32.44 nM
- Plasma LEN (animal V417, 75 mg/kg, week 10 post challenge): 33.77 nM
- Plasma LEN (animal V426, 75 mg/kg, week 8 post challenge): 36.31 nM
- Plasma LEN (animal V426, 75 mg/kg, week 9 post challenge): 52.45 nM
